A word on the ΔTm: it is the change in melting temperature against a reference sample.

Data set [1] relates to HeLa cells. The data set can be described thus: Compound sensitivity testing in cell lines (48 h viability). The data set is classed as cell-based. As to conditions: HeLa. Here is the method:
1500 NCI-H1734 or 1000 A549 cells were plated in a 384-well plate in 40 μl of RPMI supplemented with 10% Fetal Bovine Serum and 1% Pen/Strep. 24 hours after plating, a compound-library of 1924 small molecules was added at a concentration of 10 μM. Staurosporine was used a positive control for cytotoxicity at a concentration of 10 μM, and DMSO was used a negative control at a concentration of 1%. All compounds were incubated for 48 hours with indicated small molecules. After 48 hours, 384-well plates were removed from the incubator and allowed to cool to room temperature for 20 minutes. Cell viability was assessed by adding 40 μl of a 25% CELLTITERGLO® (Promega) in PBS with a THERMO COMBI™ or multichannel-pipette and incubated for 10 minutes. The luminescence signal was read using a Perkin-Elmer EnVision. Viability percentage was calculated by normalizing to DMSO controls.
1000 HeLa (DMEM), 1000 A549 (RPMI), 500 MCF-7 (DMEM), 4000 PC3 (F12-K), 1000 NCI-H2122 (RPMI) or 1500 NCI-H1563 (RPMI) cells were plated in a 384-well plate in 40 μl of corresponding growth media supplemented with 10% Fetal Bovine Serum. 24 hours after plating, indicated compounds were added at indicated concentrations and incubated for 48 hours. Cell viability was assessed as described in Compound library screening in NCI-H1734 and A549 cell lines.

Another data set has as its target PDE3A (Homo sapiens, UniProt Q14432). The data set can be described thus: Linker-affinity purification of molecular target of DNMDP and immunoblotting. The data set is classed as binding. Set-up: Immunoprecipitation of endogenous PDE3A in HeLa cells; endogenous in cells; host or cells: HeLa. As to conditions: HeLa cell lysate, competitor 10 μM, immunoblot for PDE3A. As to the method: To identify the molecular target of DNMDP, an affinity purification was performed using an (R)-des-nitro-DNMDP solid-phase tethered linker analogue (FIG. 10A) incubated with HeLa cell lysate. […] It was competed for the molecular target by adding either an excess of trequinsin or separate enantiomers of DNMDP, where only the (R)-enantiomer was cytotoxic. […] Binding of PDE3A to the linker analogue was blocked by both trequinsin and (R)-DNMDP, but not by the non-cytotoxic enantiomer (S)-[…]. 9C). Thus both trequinsin and (R)-DNMDP prevented the binding of PDE3A to the tethered DNMDP analogue, and it was concluded that both molecules bind PDE3A directly. HeLa cells were washed with ice-cold PBS before lysed with NP-40 lysis buffer (150 mM NaCl, 10% glycerol, 50 mM Tris-Cl pH 8.0, 50 mM MgCl2, 1% NP-40) supplemented with EDTA-free protease inhibitors (Roche) and phosphatase inhibitor mixtures I and II (Calbiochem). […] Samples were washed three times with lysis buffer containing corresponding compound concentrations of 10 μM. Proteins bound to Affi-Gel 102 resin were reduced, denatured, and separated using Tris-Glycine gels (Novex) and transferred to nitrocellulose membranes using the iBlot transfer system (Novex). Membranes were incubated overnight at 4° C. with primary antibodies against PDE3A (1:1000, Bethyl). […]
Background: In western blotting, separated proteins are transferred to a membrane and probed.

Data set [2] relates to HeLa cells. Nature of the data set: DNMDP cytotoxicity after targeting PDE3A locus using CRISPR. The data set is classed as cell-based. The following applies: HeLa infected with Cas9 and sgRNAs against PDE3A. As to the method: FIG. 11A is a Western blot. HeLa cells were infected with Cas9 and indicated guide RNAs (sgRNA) against PDE3A. Western blots were probed for PDE3A at indicated time points. FIG. 11B is a bar graph showing percent rescue of HeLa cells that were infected with indicated sgRNAs for two weeks and treated with 1 μM of 6-(4-(diethylamino)-3-nitrophenyl)-5-methyl-4,5-dihydropyridazin-3(2H)-one (DNMDP) for 48 hours. Percent rescue was normalized to the Cas9-only control. FIG. 11C is a plot showing viability of cells infected with indicated sgRNAs and treated with various concentrations of 6-(4-(diethylamino)-3-nitrophenyl)-5-methyl-4,5-dihydropyridazin-3(2H)-one (DNMDP).
Based on the observations that DNMDP-sensitive cells expressed high levels of PDE3A, and that DNMDP competed with non-cytotoxic inhibitors for PDE3A binding, it was hypothesized that DNMDP mediated its cytotoxic phenotype through the interaction with PDE3A and that PDE3A abundance was a direct cellular determinant of DNMDP sensitivity. To validate this hypothesis, the effect of reducing levels of PDE3A on the response to DNMDP was tested. […] In an independent approach using an siRNA smart-pool containing four different siRNAs targeting PDE3A, PDE3A expression was reduced in HeLa cell line with a maximum efficiency of 70% between 24 and 72 hours after transfection. […]

In data set [3] the test system is HeLa cells. Format: cell-based. The following applies: 48 hours; for rescue of DNMDP cytotoxicity / competition with DNMDP: dose-response up to 10 μM, co-treated with DNMDP; for rescue of cell death induced by DNMDP, rank in bioactives screen: 20 μM compound + 30 nM DNMDP, 1600 compounds. As to the method:
HeLa cells were co-treated with 30 nM DNMDP (the EC70 concentration) and 20 μM of each bioactive compound. Cell viability after 48-hour treatment was assessed by ATP consumption as described earlier.
1000 HeLa cells were plated in a 384-well plate in 40 μl of DMEM supplemented with 10% Fetal Bovine Serum and 1% Pen/Strep. 24 hours after plating, a compound-library of 1600 bioactive molecules (Pharmacon) was added at a concentration of 20 μM. In parallel to bioactive compound incubation, DNMDP was added to a final concentration of 30 nM and incubated for 48 hours. Cell viability was assessed as described in Compound library screening in NCI-H1734 and A549 cell lines.

A further data set has as its target T1, PDE3A and SLFN12 (Homo sapiens, UniProt Q14432).
T1 construct: Endogenous PDE3A was immunoprecipitated; host or cells: HeLa
The data set can be described thus: Validation of DNMDP-induced PDE3A protein interactions using immunoprecipitation and immunoblotting. Format: cell-based. As to conditions: FIG. 20, affinity reagents, immunoblot. Here is the method: FIG. 19 is an immunoblot showing that DNMDP induces interaction between PDE3A and SIRT7 and SLFN12 in HeLa cells. HeLa cells were transfected with indicated plasmids and treated with indicated compounds with a final concentration of 10 μM for four hours. Endogenous PDE3A was immunoprecipitated and immunoblotted for V5 to identify novel interaction with SIRT7 and SLFN12 (upper two panels). Immunoprecipitate input was immunoblotted for PDE3A and V5 (lower two panels). V5-SLFN12 was undetectable in whole cell lysate.
FIG. 20 is an immunoblot showing confirmation of mass spectrometric results herein using affinity reagents.
HeLa cells were transfected with ORF overexpression constructs expressing V5-tagged SIRT7, V5-tagged SLFN12, or V5-tagged GFP. ORF expression constructs were obtained from the TRC (clone IDs: TRCN0000468231, TRCN0000476272, ccsbBroad304_99997). At 72 hours post transfection, cells were treated with 10 μM DNMDP or trequinsin for 4 hours followed by lysis using the ModRipa lysis buffer and immunoprecipitation of PDE3A. For each condition, 2 mg total protein lysate was incubated with 1 μg of anti-PDE3A antibody at 4° C. overnight, after which 7.5 μl each of Protein A- and Protein G-Dynabeads (Life Technologies 10001D and 10003D) were added and incubated for another 1 hour. Beads were washed and bound proteins were eluted with 30 μl of LDS PAGE gel loading buffer. Input (˜60 μg total protein lysate) and IP products were resolved on 4-12% Tris-Glycine PAGE gels and immunoblotted with an anti-V5 antibody (Life Technologies R96205, 1:5000), the Bethyl anti-PDE3A antibody (1:1000), and secondary antibodies from LiCOR Biosciences (Cat.#926-32210 and 926068021, each at 1:10,000). Blots were washed and imaged using a LiCOR Odyssey infrared imager.

For another data set, the target named is T2, PDE3A(677-1141) (Homo sapiens, UniProt Q14432).
T2 construct: purified PDE3A catalytic domain, PDE3A(677-1141)
Nature of the data set: Differential scanning fluorimetry (DSF) binding. As to conditions: 5 μM protein, 100 μM compound. As to the method:
Binding buffer: 20 mM Hepes pH 7.4, 100 μM TCEP, 1 mM MgCl2, 150 mM NaCl.
Background: In DSF a fluorescence change marks the thermal transition of the protein.

T2 sequence (Q14432 677-1141): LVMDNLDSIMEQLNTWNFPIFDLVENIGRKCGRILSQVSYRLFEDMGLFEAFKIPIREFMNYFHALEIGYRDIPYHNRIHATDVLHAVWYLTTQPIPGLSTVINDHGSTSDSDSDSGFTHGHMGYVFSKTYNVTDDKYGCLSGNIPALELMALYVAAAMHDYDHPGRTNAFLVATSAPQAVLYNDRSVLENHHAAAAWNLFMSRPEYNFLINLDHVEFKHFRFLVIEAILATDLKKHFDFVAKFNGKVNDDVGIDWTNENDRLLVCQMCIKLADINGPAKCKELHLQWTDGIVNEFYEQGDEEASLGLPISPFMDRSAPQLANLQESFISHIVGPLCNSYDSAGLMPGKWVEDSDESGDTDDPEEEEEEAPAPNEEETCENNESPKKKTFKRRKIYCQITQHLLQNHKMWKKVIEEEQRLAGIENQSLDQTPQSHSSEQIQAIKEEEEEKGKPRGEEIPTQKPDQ
Sequence of PDE3A (Q14432 whole entry): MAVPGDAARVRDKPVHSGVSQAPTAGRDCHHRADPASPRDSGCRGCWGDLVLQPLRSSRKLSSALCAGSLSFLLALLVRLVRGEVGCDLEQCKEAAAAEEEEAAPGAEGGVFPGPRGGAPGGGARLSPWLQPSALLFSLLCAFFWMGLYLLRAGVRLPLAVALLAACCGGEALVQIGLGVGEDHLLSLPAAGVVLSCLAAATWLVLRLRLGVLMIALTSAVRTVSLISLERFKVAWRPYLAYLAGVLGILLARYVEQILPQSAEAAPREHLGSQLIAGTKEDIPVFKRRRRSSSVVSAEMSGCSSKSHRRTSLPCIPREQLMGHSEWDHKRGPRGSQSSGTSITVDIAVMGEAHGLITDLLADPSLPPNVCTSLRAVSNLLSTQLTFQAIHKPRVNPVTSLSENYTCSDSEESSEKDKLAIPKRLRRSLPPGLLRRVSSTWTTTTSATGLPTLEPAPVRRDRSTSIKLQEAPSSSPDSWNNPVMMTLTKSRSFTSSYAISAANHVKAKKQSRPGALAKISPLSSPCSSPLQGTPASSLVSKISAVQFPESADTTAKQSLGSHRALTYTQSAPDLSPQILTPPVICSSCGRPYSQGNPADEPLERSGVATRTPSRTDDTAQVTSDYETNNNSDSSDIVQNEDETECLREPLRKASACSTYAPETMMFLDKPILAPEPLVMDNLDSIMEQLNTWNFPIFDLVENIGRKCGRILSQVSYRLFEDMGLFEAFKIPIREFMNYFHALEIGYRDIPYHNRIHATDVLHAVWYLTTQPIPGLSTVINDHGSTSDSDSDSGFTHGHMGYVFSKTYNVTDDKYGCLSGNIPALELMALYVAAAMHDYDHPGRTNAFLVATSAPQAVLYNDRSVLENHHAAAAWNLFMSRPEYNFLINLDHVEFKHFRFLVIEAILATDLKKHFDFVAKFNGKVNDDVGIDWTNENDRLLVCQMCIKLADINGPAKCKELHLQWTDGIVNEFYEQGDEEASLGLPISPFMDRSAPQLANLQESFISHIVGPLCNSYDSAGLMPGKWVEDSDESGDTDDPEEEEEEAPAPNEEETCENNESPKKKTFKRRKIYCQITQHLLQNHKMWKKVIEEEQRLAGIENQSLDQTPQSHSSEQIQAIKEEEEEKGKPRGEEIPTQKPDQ
T1 sequence (Q14432 whole entry): as above
T1 sequence (Q8IYM2 whole entry partner): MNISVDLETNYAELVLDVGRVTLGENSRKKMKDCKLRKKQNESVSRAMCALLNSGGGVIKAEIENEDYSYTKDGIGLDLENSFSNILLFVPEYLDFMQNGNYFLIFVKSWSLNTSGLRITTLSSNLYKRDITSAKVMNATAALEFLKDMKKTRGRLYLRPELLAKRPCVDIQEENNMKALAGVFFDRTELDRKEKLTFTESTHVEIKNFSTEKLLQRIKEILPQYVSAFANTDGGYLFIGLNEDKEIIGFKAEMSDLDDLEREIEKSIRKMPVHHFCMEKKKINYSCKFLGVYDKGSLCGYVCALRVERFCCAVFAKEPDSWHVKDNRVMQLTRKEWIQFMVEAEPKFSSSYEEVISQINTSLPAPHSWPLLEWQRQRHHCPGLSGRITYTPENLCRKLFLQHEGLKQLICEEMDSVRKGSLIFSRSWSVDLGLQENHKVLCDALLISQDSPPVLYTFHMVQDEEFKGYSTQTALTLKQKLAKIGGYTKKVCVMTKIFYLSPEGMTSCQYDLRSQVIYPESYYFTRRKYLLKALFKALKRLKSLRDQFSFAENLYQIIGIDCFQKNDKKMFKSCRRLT

For the compound `CCN(CC)c1ccc(C2=NNC(=O)C[C@H]2C)cc1[N+](=O)[O-]` [(R)-DNMDP, (R)-6-(4-(diethylamino)-3-nitrophenyl)-5-methyl-4,5-dihydropyridazin-3(2H)-one], in the data set on HeLa cells [1], the “effect on HeLa cell viability / cytotoxicity” value is recorded as “cytotoxic” and the “fold lower EC50 compared to the (S)-enantiomer” value is recorded as 500 fold. In addition, the “blocking of binding of PDE3A to the tethered linker analogue” value at PDE3A is recorded as “blocked”.

For `CCN(CC)c1ccc(C2=NNC(=O)C[C@@H]2C)cc1[N+](=O)[O-]` [(S)-DNMDP], in the data set with HeLa cells [1], the “effect on HeLa cell viability / cytotoxicity” value was “non-cytotoxic”.

In the case of `C[C@@H]1CC(=O)NN=C1c1ccc(N2CCOCC2)cc1` [Compound 3], the “rescue of toxicity by PDE3A sgRNA2 and sgRNA3” value with HeLa cells [2] is given as “significant rescue of toxicity”.

As to `CCN(CCOCCOCCNC(=O)OC(C)(C)C)c1ccc(C2=NNC(=O)C[C@H]2C)cc1` [DNMDP-2L, tert-butyl (R)-(2-(2-(2-(ethyl(4-(4-methyl-6-oxo-1,4,5,6-tetrahydropyridazin-3-yl)phenyl)amino)ethoxy)ethoxy)ethyl)carbamate], in the data set with HeLa cells [3], the “rescue of DNMDP cytotoxicity / competition with DNMDP” value was “same DNMDP cytotoxicity rescue phenotype as non-cytotoxic PDE3 inhibitors”.

Take `O=C1CN2Cc3c(ccc(Cl)c3Cl)N=C2N1` [anagrelide, 6,7-dichloro-1,5-dihydroimidazo (2,1-b)quinazolin-2(3H)-one]: the “PDE3A and SLFN12 complex formation” value on PDE3A and SLFN12 was “weakly”. For the same compound, on PDE3A(677-1141), the “Tm (° C.)” value is 56.6 ± 0.0 °C and the ΔTm at 100 µM turned out to be 4.2 °C.

As for `CN(C(=O)CCCOc1ccc2[nH]c(=O)ccc2c1)C1CCCCC1` [cilostamide], the “rescue of DNMDP cytotoxicity / competition with DNMDP” value in the data set with HeLa cells [3] is reported as “able to rescue DNMDP cytotoxicity in a dose-dependent manner”.

Take `O=C1CCc2cc(OCCCCc3nnnn3C3CCCCC3)ccc2N1` [cilostazol, 6-[4-(1-cyclohexyl-1H-tetrazol-5-yl)butoxy]-3,4-dihydro-2(1H)-quinolinone]: the “rescue of cell death induced by DNMDP, rank in bioactives screen” value in the data set with HeLa cells [3] is “three most potent compounds”.

Take `CC(C)C(=O)c1c(C(C)C)nn2ccccc12` [idubulast]: in the data set with HeLa cells [3], the “rescue of DNMDP cytotoxicity / competition with DNMDP” value was “not effective competitors”.

Take `Cc1[nH]c(=O)c(C#N)cc1-c1ccncc1` [milrinone, 2-methyl-6-oxo-1,6-dihydro-3,4′-bipyridine-5-carbonitrile]: in the data set with HeLa cells [3], the “rescue of cell death induced by DNMDP, rank in bioactives screen” value is recorded as “three most potent compounds” and the “rescue of DNMDP cytotoxicity / competition with DNMDP” value was “able to rescue DNMDP cytotoxicity in a dose-dependent manner”.

Take `CCCc1nn(C)c2c(=O)[nH]c(-c3cc(S(=O)(=O)N4CCN(C)CC4)ccc3OCC)nc12` [sildenafil, 1-[4-ethoxy-3-(6,7-dihydro-1-methyl-7-oxo-3-propyl-1H-pyrazolo[4,3-d]pyrimidin-5-yl)phenylsulfonyl]-4-methylpiperazine]: in the data set on HeLa cells [3], the “rescue of DNMDP cytotoxicity / competition with DNMDP” value is recorded as “not effective competitors”.

Consider `CCCc1nc(C)c2c(=O)[nH]c(-c3cc(S(=O)(=O)N4CCN(CC)CC4)ccc3OCC)nn12` [vardenafil, 4-[2-ethoxy-5-(4-ethylpiperazin-1-yl)sulfonyl-phenyl]-9-methyl-7-propyl-3,5,6,8-tetrazabicyclo[4.3.0]nona-3,7,9-trien-2-one], for which the “rescue of DNMDP cytotoxicity / competition with DNMDP” value in the data set on HeLa cells [3] is “not effective competitors”.

The values are drawn from US11207320B2, “Compositions and methods for cancer expressing PDE3A or SLFN12” (The Broad Institute, Inc., priority 2015, dated 2021).
